Results from PubChem BioAssay AID400 (SGCOxCompounds, 2006).

Molecular target: Tyrosine-protein phosphatase non-receptor type 5 (Homo sapiens) (UniProt P54829)
Test: inhibition of STEP tyrosine phosphatase activity – biochemical, human, DiFMUP fluorescence (AID 400)
Conditions: recombinant PTPN5, DiFMUP fluorescence phosphatase assay, active compounds read high
[1] = at 50 µM, enzyme 6.5 ng/mL, DTT 5 mM
[2] = at 50 µM, enzyme 87 ng/mL, DTT 5 mM
[3] = dose 200 (unit in doubt), enzyme 20 ng/mL, DTT 1 mM

Tyrosine-protein phosphatase non-receptor type 5 (Homo sapiens), sequence (P54829 whole entry, looked up): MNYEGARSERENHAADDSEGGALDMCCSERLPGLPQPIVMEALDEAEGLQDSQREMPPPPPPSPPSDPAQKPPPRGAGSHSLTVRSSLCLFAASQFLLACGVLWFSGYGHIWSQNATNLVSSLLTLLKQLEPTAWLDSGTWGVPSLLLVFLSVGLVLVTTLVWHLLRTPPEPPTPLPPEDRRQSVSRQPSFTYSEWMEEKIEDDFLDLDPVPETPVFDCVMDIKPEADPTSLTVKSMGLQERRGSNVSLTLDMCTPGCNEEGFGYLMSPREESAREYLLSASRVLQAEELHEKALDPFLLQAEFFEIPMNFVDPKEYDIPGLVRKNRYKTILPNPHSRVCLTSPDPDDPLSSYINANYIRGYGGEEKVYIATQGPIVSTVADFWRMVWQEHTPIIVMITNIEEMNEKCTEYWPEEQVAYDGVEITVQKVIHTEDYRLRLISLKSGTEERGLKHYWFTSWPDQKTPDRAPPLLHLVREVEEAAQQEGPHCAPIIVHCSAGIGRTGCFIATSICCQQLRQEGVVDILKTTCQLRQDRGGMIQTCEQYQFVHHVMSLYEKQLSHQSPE

SMILES | inhibition [2] | further results
NC1=NC(=O)/C(=C/C=C/c2ccc([N+](=O)[O-])o2)S1 |  | inhibition [1]: 75.5%
CCCCOC(OCCCC)(OCCCC)OCCCC |  | inhibition [3]: 99.4%
Oc1c(Cl)c(Cl)c(O)c2nsnc12 |  | inhibition [1]: 33%
[NH-]CO.[NH-]CO.[NH-]CO.[NH-]CO.[O]=[V][O][V]=[O] |  | inhibition (dose 33 (unit in doubt), enzyme 28.9 ng/mL, DTT 1 mM): 43%
CCn1nc(-c2ccc(Cl)cc2)nc2c(=O)n(C)c(=O)nc1-2 |  | inhibition [3]: 67.5%
CCn1nc(/C=C/c2ccccc2)[n+](=O)c2c(=O)n(C)c(=O)[nH]c21 |  | inhibition [3]: 54%
O=C(O)C1Nc2c(O)cccc2C2C=CCC12 (stereo not given) |  | inhibition [1]: 17%
CC(=O)c1ccc2c(c1)C1C=CCC1C(C(=O)O)N2 (stereo not given) |  | inhibition [1]: 46%
O=C(O)c1ccc(O)c(C=Nc2cccc(-c3nc4ccccc4o3)c2)c1 | 38% | 
Cn1nc(/C=C/c2ccccc2)nc2c(=O)n(C)c(=O)nc1-2 |  | inhibition [3]: 70%
CC1(C)OC(=O)C(=Cc2ccc(Br)o2)C(=O)O1 |  | inhibition [1]: 7%
O=P(O)(O)OP(=O)(O)O |  | inhibition [3]: 31.6%
COc1ccc(-c2nc3cc(N=Cc4cc(C(=O)O)ccc4O)ccc3o2)cc1 | 83% | 
F | 91% | 
Cn1nc(-c2ccccc2)nc2c(=O)n(C)c(=O)nc1-2 |  | inhibition (at 50 µM, enzyme 20 ng/mL, DTT 1 mM): 95%
COc1cc[n+](C(=O)N(C)C)cc1 |  | inhibition [1]: 14%
O=C1NC(=S)S/C1=C\C=C\c1ccc([N+](=O)[O-])o1 |  | inhibition [1]: 88%
Cn1c(=O)[nH]c2c(c1=O)[n+](=O)c(/C=C/c1ccccc1)nn2C |  | inhibition [3]: 52%
O=C(O)c1ccc(O)c(C=Nc2ccc3oc(-c4cccc(Cl)c4Cl)nc3c2)c1 | 33% | 

Further lines, with some results ahead:

inhibition [2] | SMILES | further results
30% | CC(C)(C)NC(=O)CCN(/N=C/c1cc(C(=O)O)ccc1O)C1=NS(=O)(=O)c2ccccc21 | 
29% | CC(C)C(=O)Nc1ccc(O)cc1C(=O)O | 
63% | O=C(O)c1ccc(O)cn1.OO.[O]=[V] | 
72% | OO.OO.[K+].[O]=[V].c1cnc2c(c1)ccc1cccnc12 | 
90% | O=C(O)c1ccc([O-])cn1.OO.OO.[K+].[K+].[O]=[V] | 
43% | O=C(O)c1ccc(O)c(/C=N/N(CCO)C2=NS(=O)(=O)c3ccccc32)c1 | 
90% | O=C([O-])c1ccccn1.OO.OO.[K+].[K+].[O]=[V] | 
53% | Cc1ccc2nc(-c3cc(N=Cc4cc(C(=O)O)ccc4O)ccc3O)[nH]c2c1 | 
33% | COc1ccccc1C(=O)Nc1ccc(O)cc1C(=O)O | 
70% | O=C(O)c1ccc(O)c(C=Nc2ccc3oc(-c4ccc(F)cc4Cl)nc3c2)c1 | 
67% | OO.OO.[K+].[O]=[V].c1ccc(-c2ccccn2)nc1 | 
